In the experiment the target is T1, full length active recombinant SYK enzyme (Homo sapiens, UniProt P43405).
T1 construct: full length active recombinant SYK enzyme (Millipore, Calif.); purchased Millipore
The experiment in a line: Inhibition of Syk tyrosine phosphorylation activity (LANCE TR-FRET kinase assay). It counts as biochemical. The note with it: activity in the Syk assays, class symbols. The source says: The in vitro and in vivo human Syk activities of the inventive compounds can be determined by various procedures known in the art, such as a test for their ability to inhibit the activity of human plasma Syk. […] The IC50 value is the concentration (in nM) of the compound required to provide 50% inhibition of human Syk proteolytic activity.
An in vitro assay for detecting and measuring inhibition activity against Syk is as follows:
Inhibition of Syk Tyrosine Phosphorylation Activity
Potency of candidate molecules for inhibiting Syk tyrosine phosphorylation activity is assessed by measuring the ability of a test compound to inhibit Syk-mediated tyrosine phosphorylation of a Syk-specific substrate.
SYK tyrosine phosphorylation activity is measured using the LANCE™ Technology developed by Perkin Elmer Life and Analytical Sciences (Boston, Mass.). LANCE™ refers to homogeneous time resolved fluorometry applications using techniques such as time-resolved fluorescence resonance energy transfer assay (TR-FRET) (see generally for procedures in Perkin Elmer Application Note-How to Optimize a Tyrosine Kinase Assay Using Time Resolved Fluorescence-Based LANCE Detection, wwww.perkinelmer.com/lifesciences). The assay principle involves detection of a phosphorylated substrate using energy transfer from a phosphospecific europium-labeled antibody to streptavidin-allophycocyanin as an acceptor.
To test the ability of candidate molecules to inhibit SYK tyrosine phosphorylation activity, molecules are reconstituted in 30% DMSO and serially diluted 1:3 with the final dilution containing DMSO in the absence of the candidate molecule. The final DMSO concentration in the assay is 3%. Kinase assays are performed as a two part reaction. The first reaction is a kinase reaction and which comprises of a candidate molecule, full length active recombinant SYK enzyme (Millipore, Calif.) and biotin-labeled SYK-specific substrate biotin-DEEDYESP-OH. The second reaction involves termination of the kinase reaction and the simultaneous addition of the detection reagents-europium-labeled anti-phosphotyrosine reagent (Eu-W1024-PY100, Perkin Elmer, Boston, Mass.) and Streptavidin-Allophycocyanin detection reagent (SA-APC, Prozyme, CA). The kinase reaction is performed in a black U-bottom 96-well microtitre plate. The final reaction volume is 50 μL and contains a final concentration of 1 nM active SYK enzyme, 550 nM SYK-substrate, and 100 μM ATP diluted in a buffer containing 50 mM Tris pH 7.5, 5 mM MgCl2, and 1 mM DTT. The reaction is allowed to proceed for 1 hour at room temperature. The quench buffer contains 100 mM Tris pH 7.5, 300 mM NaCl2, 20 mM EDTA, 0.02% Brij35, and 0.5% BSA. The detection reagents are added to the reaction mixture at the following dilutions-1:500 for Eu-W1024-PY100 and 1:250 for SA-APC. The kinase reaction is terminated by the addition of 50 μL quench buffer containing the detection reagents. The detection is allowed to proceed for 1 hr at room temperature. Detection of the phosphorlated substrate in the absence and presence of inhibitors is measured in the TR-FRET instrument, Analyst HT (Molecular Probes, Sunnyvale, Calif.) and the condition for measurements are set up using CriterionHost Release 2.0 (Molecular Probes, Sunnyvale, Calif.). The settings used are a follows: excitation 360 nm, emission 665-7.5 nm, beam splitter 350 nm 50/50, flash 100 pulses, delay 60 us, integration 400 us, z-height 2 mm. Inhibition of SYK-tyrosine kinase activity is calculated as the maximum response observed in the presence of inhibitor, compared to that in the absence of inhibitor. IC50s were derived by non-linear regression analysis.
In general, IC50 refers to the concentration that gives 50% inhibition. Take `NC(=O)c1ncc(N[C@@H]2CCCC[C@@H]2N)nc1Nc1ccc2[nH]ncc2c1` (racemic) [Example 54, cis-3-(1H-indazol-5-ylamino)-5-(2-aminocyclohexylamino)pyrazine-2-carboxamide]: the IC50 is less than 1 nM.

With `CC(C)C[C@@H](Nc1cnc(C(N)=O)c(Nc2cnc3ccccc3c2)n1)C(N)=O` [Example 1, (R)-5-(1-amino-4-methyl-1-oxopentan-2-ylamino)-3-(quinolin-3-ylamino)pyrazine-2-carboxamide], the IC50 lay within 1 to 10 nM.

For the compound `CC(C)C[C@@H](Nc1cnc(C(N)=O)c(Nc2ccc3ncccc3c2)n1)C(N)=O` [Example 2, (R)-5-(1-amino-4-methyl-1-oxopentan-2-ylamino)-3-(quinolin-6-ylamino)pyrazine-2-carboxamide], the IC50 lay in the range of 1 to 10 nM.

`CC(C)C[C@@H](Nc1cnc(C(N)=O)c(Nc2cccc3c2ccn3C)n1)C(N)=O` [Example 3, (R)-5-(1-amino-4-methyl-1-oxopentan-2-ylamino)-3-(1-methyl-1H-indol-4-ylamino)pyrazine-2-carboxamide]: the half-inhibitory concentration (IC50) lay in the range of 1 to 10 nM.

`C[C@@H](Nc1cnc(C(N)=O)c(Nc2ccc3ncccc3c2)n1)C(N)=O` [Example 4, (R)-5-(1-amino-1-oxopropan-2-ylamino)-3-(quinolin-6-ylamino)pyrazine-2-carboxamide]: the 50% inhibitory concentration (IC50) lay in the range of 1 to 10 nM.

Turning to `C[C@@H](Nc1cnc(C(N)=O)c(Nc2cnc3ccccc3c2)n1)C(N)=O` [Example 5, (R)-5-(1-amino-1-oxopropan-2-ylamino)-3-(quinolin-3-ylamino)pyrazine-2-carboxamide], the half-inhibitory concentration (IC50) fell in the range of 1 to 10 nM.

Turning to `NC(=O)c1ncc(NC(CC(F)(F)F)C(N)=O)nc1Nc1ccc2ncccc2c1` (stereo not drawn) [Example 6, 5-(1-amino-4,4,4-trifluoro-1-oxobutan-2-ylamino)-3-(quinolin-6-ylamino)pyrazine-2-carboxamide], the IC50 lay in the range of 1 to 10 nM.

`NC(=O)c1ncc(N[C@H](CC2CC2)C(N)=O)nc1Nc1cnc2ccccc2c1` [Example 7, (R)-5-(1-amino-3-cyclopropyl-1-oxopropan-2-ylamino)-3-(quinolin-3-ylamino)pyrazine-2-carboxamide]: the IC50 is 1 to 10 nM.

Regarding `NC(=O)c1ncc(N[C@H](CC2CC2)C(N)=O)nc1Nc1ccc2ncccc2c1` [Example 8, (R)-5-(1-amino-3-cyclopropyl-1-oxopropan-2-ylamino)-3-(quinolin-6-ylamino)pyrazine-2-carboxamide], the IC50 was 1 to 10 nM.

As for `NC(=O)c1ncc(N[C@H](CC2CC2)C(N)=O)nc1Nc1csc2ncccc12` [Example 9, (R)-5-(1-amino-3-cyclopropyl-1-oxopropan-2-ylamino)-3-(thieno[2,3-b]pyridin-3-ylamino)pyrazine-2-carboxamide], the IC50 fell in the range of 1 to 10 nM.

Turning to `NC(=O)c1ncc(N[C@@H]2CCCC[C@@H]2N)nc1Nc1cccc(-n2nccn2)c1` [Example 10, 3-(3-(2H-1,2,3-triazol-2-yl)phenylamino)-5-((1R,2S)-2-aminocyclohexylamino)pyrazine-2-carboxamide], the IC50 lay in the range of 1 to 10 nM.

`Cn1ccc2c(Nc3nc(N[C@@H]4CCCC[C@@H]4N)cnc3C(N)=O)cccc21` [Example 11, 5-((1R,2S)-2-aminocyclohexylamino)-3-(1-methyl-1H-indol-4-ylamino)pyrazine-2-carboxamide]: the concentration for half-maximal inhibition (IC50) was in the range of 1 to 10 nM.

Regarding `NC(=O)c1ncc(N[C@@H]2CCCC[C@@H]2N)nc1Nc1cccc(-c2ncccn2)c1` [Example 12, 5-((1R,2S)-2-aminocyclohexylamino)-3-(3-(pyrimidin-2-yl)phenylamino)pyrazine-2-carboxamide], the IC50 lay within 1 to 10 nM.

For `NC(=O)c1ccc(Nc2nc(N[C@@H]3CCCC[C@@H]3N)cnc2C(N)=O)cc1` [Example 13, 5-((1R,2S)-2-aminocyclohexylamino)-3-(4-carbamoylphenylamino)pyrazine-2-carboxamide], the half-inhibitory concentration (IC50) was 1 to 10 nM.

Take `NC(=O)c1ncc(N[C@@H]2CCCC(F)(F)[C@@H]2N)nc1Nc1ccc2ncccc2c1` [Example 14, 5-((1R,2R)-2-amino-3,3-difluorocyclohexylamino)-3-(quinolin-6-ylamino)pyrazine-2-carboxamide]: the IC50 lay in the range of 1 to 10 nM.

For the compound `NC(=O)c1ncc(N[C@@H]2CCCC(F)(F)[C@@H]2N)nc1Nc1cccc(-n2nccn2)c1` [Example 15, 3-(3-(2H-1,2,3-triazol-2-yl)phenylamino)-5-((1R,2R)-2-amino-3,3-difluorocyclohexylamino)pyrazine-2-carboxamide], the IC50 lay in the range of 10 to 100 nM.

On to `NC(=O)c1ncc(N[C@@H]2CCCC(F)(F)[C@@H]2N)nc1Nc1cccc(-c2ncccn2)c1` [Example 16, 5-((1R,2R)-2-amino-3,3-difluorocyclohexylamino)-3-(3-(pyrimidin-2-yl)phenylamino)pyrazine-2-carboxamide], for which the IC50 is 100 to 1000 nM.

Consider `NC(=O)c1ncc(N[C@@H]2CCCC(F)(F)[C@@H]2N)nc1Nc1ccccc1` [Example 17, 5-((1R,2R)-2-amino-3,3-difluorocyclohexylamino)-3-(phenylamino)pyrazine-2-carboxamide], for which the IC50 lay within 10 to 100 nM.

Regarding `NC(=O)c1ncc(N[C@@H]2CCCC(F)(F)[C@@H]2N)nc1Nc1ccc(-c2ccno2)cc1` [Example 18, 5-((1R,2R)-2-amino-3,3-difluorocyclohexylamino)-3-(4-(isoxazol-5-yl)phenylamino)pyrazine-2-carboxamide], the IC50 lay in the range of 10 to 100 nM.

For `NC(=O)c1ccc(Nc2nc(N[C@@H]3CCCC(F)(F)[C@@H]3N)cnc2C(N)=O)cc1` [Example 19, 5-((1R,2R)-2-amino-3,3-difluorocyclohexylamino)-3-(4-carbamoylphenylamino)pyrazine-2-carboxamide], the IC50 was in the range of 10 to 100 nM.

Take `CC(C)C[C@@H](Nc1cnc(C(N)=O)c(Nc2ccc(C(N)=O)cc2)n1)C(N)=O` [Example 20, (R)-5-(1-amino-4-methyl-1-oxopentan-2-ylamino)-3-(4-carbamoylphenylamino)pyrazine-2-carboxamide]: the 50% inhibitory concentration (IC50) lay in the range of 1 to 10 nM.

As for `CC(C)C[C@@H](Nc1cnc(C(N)=O)c(Nc2ccc(-c3ccno3)cc2)n1)C(N)=O` [Example 21, (R)-5-(1-amino-4-methyl-1-oxopentan-2-ylamino)-3-(4-(isoxazol-5-yl)phenylamino)pyrazine-2-carboxamide], the 50% inhibitory concentration (IC50) was 1 to 10 nM.

Turning to `Cc1cc(Nc2nc(N[C@H](CC(C)C)C(N)=O)cnc2C(N)=O)sn1` [Example 22, (R)-5-(1-amino-4-methyl-1-oxopentan-2-ylamino)-3-(3-methylisothiazol-5-ylamino)pyrazine-2-carboxamide], the 50% inhibitory concentration (IC50) was in the range of 1 to 10 nM.

Regarding `Cc1cc(Nc2nc(N[C@@H]3CCCC(F)(F)[C@@H]3N)cnc2C(N)=O)sn1` [Example 23, 5-((1R,2R)-2-amino-3,3-difluorocyclohexylamino)-3-(3-methylisothiazol-5-ylamino)pyrazine-2-carboxamide], the IC50 lay within 10 to 100 nM.

Consider `COc1ccc(Nc2nc(N[C@@H]3CCCC(F)(F)[C@@H]3N)cnc2C(N)=O)cc1` [Example 24, 5-((1R,2R)-2-amino-3,3-difluorocyclohexylamino)-3-(4-methoxyphenylamino)pyrazine-2-carboxamide], for which the IC50 lay in the range of 10 to 100 nM.

In the case of `NC(=O)c1ncc(N[C@@H]2CCCC(F)(F)[C@@H]2N)nc1Nc1ccc2c(c1)CCC(=O)N2` [Example 25, 5-((1R,2R)-2-amino-3,3-difluorocyclohexylamino)-3-(2-oxo-1,2,3,4-tetrahydroquinolin-6-ylamino)pyrazine-2-carboxamide], the half-maximal inhibitory concentration (IC50) lay within 1 to 10 nM.

For `NC(=O)c1ncc(N[C@@H]2CCCC(F)(F)[C@@H]2N)nc1Nc1ccc(-c2ccncc2)cc1` [Example 26, 5-((1R,2R)-2-amino-3,3-difluorocyclohexylamino)-3-(4-(pyridin-4-yl)phenylamino)pyrazine-2-carboxamide], the concentration for half-maximal inhibition (IC50) fell in the range of 10 to 100 nM.

The values are drawn from patent US9359308B2, “Pyrazine kinase inhibitors” (Portola Pharmaceuticals, Inc., priority 2011, dated 2016).
